The test system of assay [1] is ISC-enriched organoids. Briefly: Primary screen, 384-well 2.5-D organoid differentiation (ENR+CD, 6 days): basal lysozyme secretion (LYZ.NS). It is filed as cell-based, murine. The conditions noted are these: primary screen; for Dose.FC.LYZ.NS: ENR+CD 6 days, FC vs plate median; for Z.LYZ.NS: standard z score of FC. From the text:
(§1) High-throughput screening.

For assay [2], the system named is ISC-enriched organoids. Briefly: Primary screen, 384-well 2.5-D organoid differentiation (ENR+CD, 6 days): carbachol-induced lysozyme secretion (LYZ.S). The conditions noted are these: primary screen, ENR+CD 6 days, FC vs plate median. It is filed as cell-based, murine.
From the text: as §1

Assay [3] deals with ISC-enriched organoids. Description: Primary screen, 384-well 2.5-D organoid differentiation (ENR+CD, 6 days, Target Selective Inhibitor Library, vs whole-plate median): ATP (CellTiter-Glo 3D, CTG). The conditions noted are these: primary screen; for Dose.FC.CTG: ENR+CD 6 days, FC vs plate median; for Z.CTG: standard z score of FC. (In general: Cellular ATP, detected with luciferase, serves as a proxy for viable cell number.)

As for `NC(=O)Nc1cc(-c2cccc(F)c2)sc1C(=O)N[C@H]1CCCNC1` [AZD7762], the Dose.FC.LYZ.NS in assay [1] (dose 0.08 uM) is reported as 0.010 log 2 fold change; in assay [1] (dose 0.40 uM), −0.159 log 2 fold change; in assay [1] (dose 2.00 uM), −0.211 log 2 fold change; in assay [1] (dose 10.00 uM) it was −0.220 log 2 fold change. Besides, the Z.LYZ.NS in assay [1] (dose 0.08 uM) is 0.084; in assay [1] (dose 0.40 uM), −1.385; in assay [1] (dose 2.00 uM), −1.835; in assay [1] (dose 10.00 uM) it was −1.917. Further, the Dose.FC.LYZ.S in assay [2] (dose 0.08 uM) is 0.019 log 2 fold change; in assay [2] (dose 0.40 uM), −0.251 log 2 fold change; in assay [2] (dose 2.00 uM) it was −0.342 log 2 fold change; in assay [2] (dose 10.00 uM), −0.369 log 2 fold change. The Dose.FC.CTG in assay [3] (dose 0.08 uM) is recorded as 0.054 log 2 fold change; in assay [3] (dose 0.40 uM), −0.384 log 2 fold change; in assay [3] (dose 2.00 uM), −0.804 log 2 fold change; in assay [3] (dose 10.00 uM), −1.361 log 2 fold change. Also, the Z.CTG in assay [3] (dose 0.08 uM) is recorded as 0.129; in assay [3] (dose 0.40 uM), −0.917; in assay [3] (dose 2.00 uM) it was −1.920; in assay [3] (dose 10.00 uM), −3.251.
Turning to `COc1cc(F)c(C(C)C)cc1-c1ccc(C(F)(F)F)cc1CN1C(=O)O[C@H](c2cc(C(F)(F)F)cc(C(F)(F)F)c2)[C@@H]1C` [Anacetrapib (MK-0859)], the Dose.FC.LYZ.NS in assay [1] (dose 0.08 uM) was 0.013 log 2 fold change; in assay [1] (dose 0.40 uM) it was 0.007 log 2 fold change; in assay [1] (dose 2.00 uM), −0.015 log 2 fold change; in assay [1] (dose 10.00 uM), −0.036 log 2 fold change. Also, the Z.LYZ.NS is 0.112 in assay [1] (dose 0.08 uM), 0.060 in assay [1] (dose 0.40 uM), −0.129 in assay [1] (dose 2.00 uM) and −0.314 in assay [1] (dose 10.00 uM). Further, the Dose.FC.LYZ.S is recorded as 0.051 log 2 fold change in assay [2] (dose 0.08 uM), −0.002 log 2 fold change in assay [2] (dose 0.40 uM), −0.046 log 2 fold change in assay [2] (dose 2.00 uM) and −0.036 log 2 fold change in assay [2] (dose 10.00 uM). The Dose.FC.CTG was −0.090 log 2 fold change in assay [3] (dose 0.08 uM), 0.035 log 2 fold change in assay [3] (dose 0.40 uM), −0.094 log 2 fold change in assay [3] (dose 2.00 uM) and 0.031 log 2 fold change in assay [3] (dose 10.00 uM). Besides, the Z.CTG in assay [3] (dose 0.08 uM) was −0.214; in assay [3] (dose 0.40 uM), 0.084; in assay [3] (dose 2.00 uM), −0.225; in assay [3] (dose 10.00 uM), 0.075.
On to `O=C1C(=O)N(Cc2ccc(Cl)c(Cl)c2)c2ccccc21` [Apoptosis Activator 2], for which the Dose.FC.LYZ.NS is listed as 0.149 log 2 fold change in assay [1] (dose 0.08 uM), 0.033 log 2 fold change in assay [1] (dose 0.40 uM), −0.006 log 2 fold change in assay [1] (dose 2.00 uM) and −0.199 log 2 fold change in assay [1] (dose 10.00 uM). Moreover, the Z.LYZ.NS in assay [1] (dose 0.08 uM) was 1.302; in assay [1] (dose 0.40 uM), 0.290; in assay [1] (dose 2.00 uM), −0.049; in assay [1] (dose 10.00 uM), −1.734. The Dose.FC.LYZ.S is recorded as 0.132 log 2 fold change in assay [2] (dose 0.08 uM), 0.073 log 2 fold change in assay [2] (dose 0.40 uM), −0.009 log 2 fold change in assay [2] (dose 2.00 uM) and −0.252 log 2 fold change in assay [2] (dose 10.00 uM). Also, the Dose.FC.CTG in assay [3] (dose 0.08 uM) is listed as 0.304 log 2 fold change; in assay [3] (dose 0.40 uM), 0.262 log 2 fold change; in assay [3] (dose 2.00 uM), 0.082 log 2 fold change; in assay [3] (dose 10.00 uM) it was −0.158 log 2 fold change. For the same molecule, the Z.CTG in assay [3] (dose 0.08 uM) is given as 0.725; in assay [3] (dose 0.40 uM), 0.626; in assay [3] (dose 2.00 uM), 0.195; in assay [3] (dose 10.00 uM), −0.378.
On to `O=C(O)c1cccc(-c2noc(-c3ccccc3F)n2)c1` [Ataluren (PTC124)], for which the Dose.FC.LYZ.NS in assay [1] (dose 0.08 uM) came out at 0.029 log 2 fold change; in assay [1] (dose 0.40 uM), 0.042 log 2 fold change; in assay [1] (dose 2.00 uM), 0.131 log 2 fold change; in assay [1] (dose 10.00 uM), 0.009 log 2 fold change. The Z.LYZ.NS in assay [1] (dose 0.08 uM) is 0.253; in assay [1] (dose 0.40 uM) it was 0.362; in assay [1] (dose 2.00 uM) it was 1.140; in assay [1] (dose 10.00 uM), 0.077. For the same molecule, the Dose.FC.LYZ.S in assay [2] (dose 0.08 uM) was 0.051 log 2 fold change; in assay [2] (dose 0.40 uM), 0.034 log 2 fold change; in assay [2] (dose 2.00 uM), 0.058 log 2 fold change; in assay [2] (dose 10.00 uM), 0.005 log 2 fold change. The Dose.FC.CTG is recorded as 0.267 log 2 fold change in assay [3] (dose 0.08 uM), −0.340 log 2 fold change in assay [3] (dose 0.40 uM), −0.042 log 2 fold change in assay [3] (dose 2.00 uM) and 0.006 log 2 fold change in assay [3] (dose 10.00 uM). Besides, the Z.CTG in assay [3] (dose 0.08 uM) is 0.639; in assay [3] (dose 0.40 uM) it was −0.813; in assay [3] (dose 2.00 uM), −0.100; in assay [3] (dose 10.00 uM) it was 0.013.
On to `CN(C)C(=O)Nc1cccc(-c2ccc(N(C)C)cc2)c1` [Atglistatin], for which the Dose.FC.LYZ.NS in assay [1] (dose 0.08 uM) is 0.069 log 2 fold change; in assay [1] (dose 0.40 uM) it was 0.135 log 2 fold change; in assay [1] (dose 2.00 uM) it was 0.070 log 2 fold change; in assay [1] (dose 10.00 uM), −0.016 log 2 fold change. Further, the Z.LYZ.NS in assay [1] (dose 0.08 uM) is 0.604; in assay [1] (dose 0.40 uM), 1.176; in assay [1] (dose 2.00 uM), 0.613; in assay [1] (dose 10.00 uM), −0.142. Further, the Dose.FC.LYZ.S is given as 0.028 log 2 fold change in assay [2] (dose 0.08 uM), −0.035 log 2 fold change in assay [2] (dose 0.40 uM), 0.026 log 2 fold change in assay [2] (dose 2.00 uM) and 0.012 log 2 fold change in assay [2] (dose 10.00 uM). The Dose.FC.CTG in assay [3] (dose 0.08 uM) is listed as 0.057 log 2 fold change; in assay [3] (dose 0.40 uM), 0.004 log 2 fold change; in assay [3] (dose 2.00 uM), −0.045 log 2 fold change; in assay [3] (dose 10.00 uM), −0.431 log 2 fold change. The Z.CTG in assay [3] (dose 0.08 uM) is reported as 0.137; in assay [3] (dose 0.40 uM), 0.009; in assay [3] (dose 2.00 uM), −0.108; in assay [3] (dose 10.00 uM), −1.031.
Regarding `CC(C)c1c(C(=O)Nc2ccccc2)c(-c2ccccc2)c(-c2ccc(F)cc2)n1CC[C@@H](O)C[C@@H](O)CC(=O)[O-].CC(C)c1c(C(=O)Nc2ccccc2)c(-c2ccccc2)c(-c2ccc(F)cc2)n1CC[C@@H](O)C[C@@H](O)CC(=O)[O-].[Ca+2]` [Atorvastatin Calcium], the Dose.FC.LYZ.NS is −0.009 log 2 fold change in assay [1] (dose 0.08 uM), 0.007 log 2 fold change in assay [1] (dose 0.40 uM), −0.247 log 2 fold change in assay [1] (dose 2.00 uM) and −0.235 log 2 fold change in assay [1] (dose 10.00 uM). Moreover, the Z.LYZ.NS in assay [1] (dose 0.08 uM) is −0.077; in assay [1] (dose 0.40 uM), 0.062; in assay [1] (dose 2.00 uM), −2.148; in assay [1] (dose 10.00 uM), −2.045. Further, the Dose.FC.LYZ.S is 0.022 log 2 fold change in assay [2] (dose 0.08 uM), −0.062 log 2 fold change in assay [2] (dose 0.40 uM), −0.354 log 2 fold change in assay [2] (dose 2.00 uM) and −0.305 log 2 fold change in assay [2] (dose 10.00 uM). Also, the Dose.FC.CTG in assay [3] (dose 0.08 uM) is given as −0.129 log 2 fold change; in assay [3] (dose 0.40 uM) it was −0.348 log 2 fold change; in assay [3] (dose 2.00 uM), −1.085 log 2 fold change; in assay [3] (dose 10.00 uM), −1.583 log 2 fold change. The Z.CTG is −0.309 in assay [3] (dose 0.08 uM), −0.831 in assay [3] (dose 0.40 uM), −2.591 in assay [3] (dose 2.00 uM) and −3.780 in assay [3] (dose 10.00 uM).
`CCN1CCN(c2ccc(Nc3cc(N(C)C(=O)Nc4c(Cl)c(OC)cc(OC)c4Cl)ncn3)cc2)CC1` [BGJ398 (NVP-BGJ398)]: the Dose.FC.LYZ.NS in assay [1] (dose 0.08 uM) is recorded as −0.002 log 2 fold change; in assay [1] (dose 0.40 uM), −0.060 log 2 fold change; in assay [1] (dose 2.00 uM), −0.052 log 2 fold change; in assay [1] (dose 10.00 uM), −0.269 log 2 fold change. Also, the Z.LYZ.NS in assay [1] (dose 0.08 uM) is −0.017; in assay [1] (dose 0.40 uM), −0.520; in assay [1] (dose 2.00 uM), −0.450; in assay [1] (dose 10.00 uM) it was −2.345. Moreover, the Dose.FC.LYZ.S in assay [2] (dose 0.08 uM) was −0.036 log 2 fold change; in assay [2] (dose 0.40 uM), 0.002 log 2 fold change; in assay [2] (dose 2.00 uM), −0.062 log 2 fold change; in assay [2] (dose 10.00 uM) it was −0.350 log 2 fold change. Further, the Dose.FC.CTG in assay [3] (dose 0.08 uM) was −0.054 log 2 fold change; in assay [3] (dose 0.40 uM) it was 0.026 log 2 fold change; in assay [3] (dose 2.00 uM) it was −0.185 log 2 fold change; in assay [3] (dose 10.00 uM), −1.500 log 2 fold change. The Z.CTG in assay [3] (dose 0.08 uM) was −0.128; in assay [3] (dose 0.40 uM), 0.063; in assay [3] (dose 2.00 uM) it was −0.442; in assay [3] (dose 10.00 uM), −3.583.

For the origin of these results see patent US20230398130A1, “METHODS AND COMPOSITIONS FOR DIFFERENTIATING STEM CELLS” (Massachusetts Institute of Technology, priority 2020, published 2023).
